The values that follow come from patent US20250332173A1, “COMPOUNDS AND METHODS FOR MODULATING NUCLEIC ACID SPLICING” (REMIX THERAPEUTICS INC., priority 2021, published 2025).

One experiment concerns HTT mRNA. In words: RT-qPCR splicing assay, HTT canonical junction (CJ) and alternative junction (AJ) mRNA. It is filed as cell-based, human. The note with it: Homo sapiens; for AC50: increase in HTT alternative junction (AJ) mRNA, read-out: HTT AJ AC50. The procedure, abridged: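 A673 or K562 cells were treated for 24 h at 37 °C with an 11-point 3-fold compound dilution series (top final concentration 10 uM, DMSO ≤0.25%). After lysis, one-step TaqMan RT-qPCR quantified junction transcripts, normalized to PPIA for A673 or to GAPDH/GUSB for K562.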
A general note: Quantitative PCR measures a nucleic acid by following its amplification.

The subject of a further experiment is Target C. In words: HiBiT protein abundance assay, Target C HiBiT K562 cell line. To be noted: Homo sapiens; HiBiT lytic detection, modified K562 cells, 24 hours, top dose 10 μM; read-out: Effect on protein abundance, Target C (IC50). It is filed as cell-based. In a few lines: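 HiBiT knock-in K562 cells (10,000/well) were treated for 24 h at 37 °C with a 10-point 3-fold dilution series, top final concentration 10 μM, DMSO ≤0.25%. Lytic HiBiT luminescence was read, normalized to unmodified K562 and DMSO-treated controls, and IC50 was interpolated from a four-parameter logistic fit.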
A general note: HiBiT is a short tag that completes a luciferase, so light tracks the accessible tagged protein.

[1] abbreviates: decrease in HTT canonical junction (CJ) mRNA, RT-qPCR, read-out: HTT CJ IC50.
[2] abbreviates: canonical junction qPCR panel, Table 5, read-out: HTT (decrease in CJ mRNA levels, IC50).

SMILES strings stand for the structures. Where two headings read alike, the source gives them in different places.

As for `Cc1cn2nc(-c3ccc4c(=O)n(C5CCN(CC6CC6)C6(CC6)C5)ncc4n3)cc(C)c2n1` (stereo not drawn) [Compound 1543, 6-[4-(cyclopropylmethyl)-4-azaspiro[2.5]octan-7-yl]-2-(2,8-dimethylimidazo[1,2-b]pyridazin-6-yl)pyrido[2,3-d]pyridazin-5-one], the 50% inhibitory concentration (IC50) in the experiment with HTT mRNA (setting [1]) was less than 0.1 µM; with HTT mRNA (setting [2]) it was less than 0.1 µM; in the experiment on Target C it was 0.1 to 1 µM. In addition, the AC50 with HTT mRNA (RT-qPCR) is less than 0.1 µM.
For the compound `Cc1cn2nc(-c3ccc4c(=O)n([C@@H]5CCNC6(CCC6)C5)ncc4n3)cc(C)c2n1` [Compound 1545, 6-[(8R)-5-azaspiro[3.5]nonan-8-yl]-2-(2,8-dimethylimidazo[1,2-b]pyridazin-6-yl)pyrido[2,3-d]pyridazin-5-one], the IC50 with HTT mRNA (setting [1]), with HTT mRNA (setting [2]) and with Target C was less than 0.1 µM in each case. Further, the AC50 in the experiment with HTT mRNA (RT-qPCR) is less than 0.1 µM.
With `Cc1cn2nc(-c3ccc4c(=O)n(C5CCNC6(CCC6)C5)ncc4n3)cc(C)c2n1` (stereo not drawn) [Compound 1553], the half-maximal inhibitory concentration (IC50) with HTT mRNA (setting [1]) was 1 to 10 µM; with HTT mRNA (setting [2]) it was 0.1 to 1 µM; in the experiment with Target C, 1 to 10 µM. The AC50 with HTT mRNA (RT-qPCR) was in the range of 0.1 to 1 µM.
Consider `Cn1cc2ccc(-n3cnc4ccc(NC5CCNCC5)cc4c3=O)cc2n1` [Compound 2164], for which the IC50 with HTT mRNA (setting [1]), in the experiment with HTT mRNA (setting [2]) and with Target C was greater than 10 µM each time. The AC50 in the experiment with HTT mRNA (RT-qPCR) is greater than 10 µM.
On to `Cc1cc(-c2ccc3ncn(C4CCNCC4)c(=O)c3c2)cc2cn(C)nc12` [Compound 2169], for which the IC50 with HTT mRNA (setting [1]), with HTT mRNA (setting [2]) and in the experiment with Target C was greater than 10 µM throughout. Also, the AC50 in the experiment on HTT mRNA (RT-qPCR) is greater than 10 µM.
Consider `Cc1cc(-c2ccc3ncn(C4CCN(C)CC4)c(=O)c3c2)cc2cn(C)nc12` [Compound 2170], for which the IC50 in the experiment on HTT mRNA (setting [1]), in the experiment with HTT mRNA (setting [2]) and in the experiment with Target C was greater than 10 µM each time. Besides, in the experiment with HTT mRNA (RT-qPCR), the AC50 was greater than 10 µM.
For `CN1CCC(Nc2ccc3ncn(-c4ccc5nn(C)cc5c4)c(=O)c3c2)CC1` [Compound 2171], the half-maximal inhibitory concentration (IC50) with HTT mRNA (setting [1]), in the experiment with HTT mRNA (setting [2]) and in the experiment with Target C was greater than 10 µM throughout. In the experiment on HTT mRNA (RT-qPCR), the concentration at half-maximal activity (AC50) is greater than 10 µM.
For `Cc1cn2cc(-n3cnc4ccc(N5CCNCC5)cc4c3=O)cc(F)c2n1` [Compound 2195], the IC50 in the experiment on HTT mRNA (setting [1]), in the experiment with HTT mRNA (setting [2]) and with Target C was greater than 10 µM throughout. Further, in the experiment with HTT mRNA (RT-qPCR), the half-maximal activity concentration (AC50) was greater than 10 µM.
For `Cn1cc2cc(-n3cnc4ccc(N5CCNCC5)cc4c3=O)cc(F)c2n1` [Compound 2196], the 50% inhibitory concentration (IC50) in the experiment on HTT mRNA (setting [1]), with HTT mRNA (setting [2]) and with Target C was greater than 10 µM each time. Besides, in the experiment on HTT mRNA (RT-qPCR), the concentration at half-maximal activity (AC50) was greater than 10 µM.
In the case of `Cc1cn2cc(-n3cnc4ccc(N5CCN(C)CC5)cc4c3=O)cc(F)c2n1` [Compound 2197], the 50% inhibitory concentration (IC50) with HTT mRNA (setting [1]), in the experiment on HTT mRNA (setting [2]) and in the experiment with Target C was 1 to 10 µM in each case. In the experiment with HTT mRNA (RT-qPCR), the concentration at half-maximal activity (AC50) was 1 to 10 µM.
Regarding `CN(c1ccc2ncn(-c3cc(F)c4nn(C)cc4c3)c(=O)c2c1)C1CCNCC1` [Compound 2198], the IC50 with HTT mRNA (setting [1]), with HTT mRNA (setting [2]) and in the experiment with Target C was greater than 10 µM each time. The AC50 in the experiment on HTT mRNA (RT-qPCR) was greater than 10 µM.
For `CN1CCC(N(C)c2ccc3ncn(-c4cc(F)c5nn(C)cc5c4)c(=O)c3c2)CC1` [Compound 2199], the 50% inhibitory concentration (IC50) in the experiment on HTT mRNA (setting [1]), in the experiment on HTT mRNA (setting [2]) and with Target C was greater than 10 µM in each case. The concentration at half-maximal activity (AC50) with HTT mRNA (RT-qPCR) is greater than 10 µM.
With `Cc1cn2cc(-n3cnc4ccc(N(C)C5CCNCC5)cc4c3=O)cc(F)c2n1` [Compound 2200], the concentration for half-maximal inhibition (IC50) in the experiment with HTT mRNA (setting [1]), in the experiment with HTT mRNA (setting [2]) and in the experiment with Target C was greater than 10 µM in each case. Also, in the experiment with HTT mRNA (RT-qPCR), the AC50 is greater than 10 µM.
Turning to `Cc1cn2nc(-n3cnc4ccc(N5CCNCC5)cc4c3=O)cc(C)c2n1` [Compound 2201], the concentration for half-maximal inhibition (IC50) in the experiment on HTT mRNA (setting [1]), with HTT mRNA (setting [2]) and in the experiment with Target C was greater than 10 µM in each case. In addition, the AC50 in the experiment on HTT mRNA (RT-qPCR) was greater than 10 µM.
Take `Cc1cn2nc(-n3cnc4ccc(N5CCN(C)CC5)cc4c3=O)cc(C)c2n1` [Compound 2202]: the IC50 with HTT mRNA (setting [1]), with HTT mRNA (setting [2]) and with Target C was 1 to 10 µM throughout. Further, in the experiment on HTT mRNA (RT-qPCR), the concentration at half-maximal activity (AC50) is 1 to 10 µM.
In the case of `Cc1cc(-c2ccc3c(=O)[nH]c(N4CCNCC4)nc3c2)cc2cn(C)nc12` [Compound 2211], the IC50 with HTT mRNA (setting [1]), with HTT mRNA (setting [2]) and in the experiment with Target C was greater than 10 µM each time. Further, in the experiment with HTT mRNA (RT-qPCR), the AC50 was greater than 10 µM.
Regarding `Cc1cc(-c2ccc3c(=O)[nH]c(N4CCN(C)CC4)nc3c2)cc2cn(C)nc12` [Compound 2212], the IC50 was 1 to 10 µM in the experiment on HTT mRNA (setting [1]), 1 to 10 µM in the experiment on HTT mRNA (setting [2]) and greater than 10 µM with Target C. For the same compound, in the experiment with HTT mRNA (RT-qPCR), the AC50 lay within 1 to 10 µM.
For the compound `Cc1cc(-c2nc3cc(N4CCNCC4)ccc3c(=O)[nH]2)cc2cn(C)nc12` [Compound 2213], the IC50 with HTT mRNA (setting [1]), in the experiment on HTT mRNA (setting [2]) and in the experiment on Target C was greater than 10 µM throughout. For the same compound, in the experiment on HTT mRNA (RT-qPCR), the AC50 is greater than 10 µM.

The IC50 is the concentration that inhibits the measured activity by half. The AC50 is the concentration at which the activity in the assay is half-maximal.
